Laboratory results: patent US11078188B2, “Dihydroquinoxaline bromodomain recognition protein inhibitor, preparation method and use thereof” (SHANGHAI INSTITUTE OF MATERIA MEDICA, CHINESE ACADEMY OF …, priority 2017, dated 2021)

How the values were obtained:
BRD4 (I) = BRD4 (I) (Homo sapiens (Human), UniProt O60885); assay: Fluorescence anisotropy (FA) binding test on BRD4 (I); settings: BRD4 (I) 10 nM, fluorescent (+)-JQ1 substrate 5 nM, read-out: BRD4 (1) IC50
Experimental: The binding activity of the compound to BRD4 (I) was tested using a fluorescence anisotropy (FA) method. The principle of FA test is to calculate and analyze the fluorescence polarization values in the horizontal and vertical directions by detecting the change of molecular weight before and after the interaction of fluorescein-labeled small molecules with other molecules. If the equilibrium of the binding between the fluorescently labeled small molecule and macromolecule is established, it will move slowly when excited, and the measured fluorescence polarization value will increase. If the binding between the fluorescently labeled small molecule and the macromolecule is replaced by another ligand, its rotation or flipping speed in the free state will be faster, and the emitted light will be depolarized relative to the plane of the excitation light, and the measured polarized light value will decrease to calculate the fluorescence anisotropy of the sample.
Expression and purification of the BRD4(I) recognition domain: colonies of newly transformed plasmid DNA from E. coli BL21(DE3)-condon plus-RIL cells were cultivated in 50 mL of Terrific Broth medium containing 50 μg/mL kanamycin and 34 μg/mL chloramphenicol at 37° C. overnight (starting culture). The starting culture was then diluted 100-fold in 1 L of fresh TB medium and the cells were grown at 37° C. to an optical density of about 0.8 at OD600 and then the temperature was lowered to 16° C. When the system was equilibrated at 16° C., the optical density at OD600 was approximately 1.2, and protein expression was induced with 0.2 mmol of isopropyl-β-D-thiogalactopyranoside (IPTG) overnight at 16° C. Bacteria were harvested by centrifugation (4000×g, 20 minutes, 4° C.) and stored as a pellet at −80° C. The cells expressing His 6-tagged protein was resuspend in lysis buffer [50 mmol 4-hydroxyethylpiperazineethanesulfonic acid (HEPES), 25° C., pH 7.5, 500 mmol NaCl, 10 mmol imidazole, 5% glycerol and freshly added 0.5 mmol of tris(2-carboxyethyl)phosphine hydrochloride (TCEP) and 1 mmol of phenylmethanesulfonyl fluoride (PMSF)] and lysed at 4° C. using JN 3000PLUS high pressure homogenizer (JNBIO-Guangzhou, China). The lysate was clarified by centrifugation (12,000×g for 1 hour at 4° C.) and applied to a nickel-nitriloacetate agarose column. The column was washed once with 50 mL of wash buffer containing 30 mmol of imidazole. The protein was eluted using imidazole in an elution buffer in a stepwise elution (100-250 mmol imidazole in 50 mmol HEPES, 25° C., pH 7.5, 500 mmol NaCl, 5% glycerol). All fractions were collected and monitored by SDS-polyacrylamide gel electrophoresis (Bio-Rad Criterion TM Precast Gels, 4-12% Bis-Tris, 1.0 mm, from Bio-Rad, CA). After 1 mmol of dithiothreitol (DTT) was added, the eluted proteins were treated with tobacco […] virus (TEV) protease overnight at 4° C. to remove the His6 tag. The protein was concentrated and further purified by size exclusion chromatography on a Superdex 75 16/60 HiLoad gel filtration column. The samples were monitored by SDS-polyacrylamide gel electrophoresis and concentrated to 8-10 mg/mL with gel filtration buffer, 10 mmol Hepes pH 7.5, 500 mM NaCl, 1 mmol DTT, and used for protein binding assays and crystallization.
The fluorogenic substrate was (+)-JQ1 linked to a fluorescent molecule and the working concentration was 5 nM. BRD4 (I) protein had 10 nM of working concentration and the total reaction system was 40 μL. The buffer was 50 mM 4-hydroxyethylpiperazineethanesulfonic acid (HEPES) pH 7.4, 150 mM NaCl, 0.5 mM 3[(3-cholamidopropyl)dimethylammonio]propanesulfonate (CHAPS). […] The final concentration of DMSO was chosen to be 0.2%, taking into account the solubility of the compound and the effect of DMSO on the assay. All measurements were made under these conditions. […]

[1] = tested on: human myeloma cells MM.1S; assay: MM.1S cell viability, CCK-8 method; type: cell-based; settings: for IC50: 72 h treatment, CCK-8; for inhibitory activity against the MM.1S cell line (in words): compared with positive (+)-JQ1
Experimental: The MM.1S cell line was tested for cell viability. The test methods were as follows: human myeloma cells MM.1S were treated with compound for 72 h, and the proliferation inhibition effect and degree of the compound were detected by CCK-8 method.

[2] = Metabolic stability in human liver microsomes; type: in vitro ADME; settings: human liver microsomes 0.5 mg/ml, 1 μM compound, NADPH; for microsomal CLint at 1 μM: read-out: HLM Clint; for half-life at 1 μM: read-out: HLM t1/2
Experimental: The system which was 150 μl of human liver microsomes (final concentration: 0.5 mg/ml) was used for metabolic stability incubation. The system contained reduced coenzyme II (NADPH) (final concentration: 1 mM) and 1 μM compound, positive control or negative control. The reaction was terminated with acetonitrile containing (imiprozine, batch number: 3221; tinidazole, given) at 0 min, 5 min, 10 min, and 30 min, respectively. The mixture was vortexed for 10 min, centrifuged at 15000 rpm for 10 min, and 50 μl of the supernatant was injected into a 96-well plate. The metabolic stability of the compound was calculated by measuring the relative reduction in the original medicament.
(§1) HLM Clint (μl/min/mg) refers to the clearance rate of compounds in human liver microsomes having a unit of μl/min/mg; mLM Clint (μl/min/mg) refers to the clearance rate of compounds in mouse liver microsomes having a unit of μl/min/mg; HLM t1/2 (min) refers to the half-life of the compound in human liver microsomes having a unit of minutes; mLM t1/2 (min) refers to the half-life of the compound in mouse liver microsomes having a unit of minutes. TDI means that the mechanism inhibition test of compounds on CYP enzyme evaluates whether the compound has time-dependent inhibition of the enzyme.

[3] = Metabolic stability in mouse liver microsomes; type: in vitro ADME; settings: for microsomal CLint at 1 μM: read-out: mLM Clint
3A4 = 3A4 (Homo sapiens (Human), UniProt P08684); assay: Direct inhibition test (DI test), CYP 3A4; type: in vitro ADME; settings: human liver microsomes 0.2 mg/ml, 20 min; for Direct inhibition rate (%) 3A4, first value: first of two values a/b (two 3A4 probes midazolam, testosterone; assignment not given); for Direct inhibition rate (%) 3A4, second value: second of two values a/b (two 3A4 probes midazolam, testosterone; assignment not given)
3A4, sequence (P08684 whole entry): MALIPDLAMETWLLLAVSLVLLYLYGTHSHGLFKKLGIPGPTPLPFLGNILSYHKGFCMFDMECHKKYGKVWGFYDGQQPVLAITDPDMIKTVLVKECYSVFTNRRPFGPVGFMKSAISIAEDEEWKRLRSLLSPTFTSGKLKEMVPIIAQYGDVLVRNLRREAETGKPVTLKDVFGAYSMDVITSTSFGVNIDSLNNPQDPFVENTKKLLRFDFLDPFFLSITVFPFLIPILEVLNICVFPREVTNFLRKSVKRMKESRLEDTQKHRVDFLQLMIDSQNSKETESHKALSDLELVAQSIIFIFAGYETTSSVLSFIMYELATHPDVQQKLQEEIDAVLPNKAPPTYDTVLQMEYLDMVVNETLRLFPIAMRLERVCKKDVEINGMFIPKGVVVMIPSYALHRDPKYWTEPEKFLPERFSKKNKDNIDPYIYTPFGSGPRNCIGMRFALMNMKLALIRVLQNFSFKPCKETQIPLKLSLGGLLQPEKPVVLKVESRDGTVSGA
Experimental: (§2) The system which was 100 μl of human liver microsomes (final concentration: 0.2 mg/ml) was used for direct inhibition incubation. The system contained NADPH (final concentration: 1 mM), 10 μl compound, positive inhibitor cocktail (ketoconazole, 10 μl, quinidine 10 μl, sulfaphenazole 100 μl, naphthoflavone 10 μl, tranylcypromine 1000 μl), negative control 10 μl DMSO and mixed probe substrate (midazolam 10 μl, testosterone 100 μl, dextromethorphan 10 μl, diclofenac 20 μl, phenacetin 100 μl, mephenytoin 100 μl). The reaction was stopped after the system was incubated for 20 min. The relative activity of the enzyme was calculated by measuring the relative amount of production of the metabolite.

CYP enzyme = assay: Mechanistic inhibition test (TDI test); type: in vitro ADME; settings: human liver microsomes 0.2 mg/ml; mechanism inhibition if kobs greater than 200
Experimental: The system which was 200 μl of human liver microsomes (final concentration: 0.2 mg/ml) was used for mechanistic inhibition incubation. The system contained 10 μl compound, mixed positive inhibitor (Troleandomycin 10 μl, Paroxetine 10 μl, Tienilic acid 10 μM, Furafylline 10 μl) or 10 μl negative control PRO. After NADPH (final concentration: 1 mM) or PBS was added, the system was incubated for 0 min, 5 min, 10 min and 30 min, then NADPH (final concentration: 1 mM) and mixed probe substrate (Midazolam 5 μM, Testosterone 50 μl, Dextromethophan 5 μM, Diclofenac 10 μl, Phenacetin 5 0 μM, S-(+)-mephenytoin 50 μl) were added and incubated for 10 min. Then the reaction was stopped. The test for positive inhibitor CYP2C19 was carried out alone, the inhibitor S-(+)-fluoxetine was 100 μM. The enzyme activity was calculated by measuring the relative production amount of metabolite. kobs was calculated.
as §1

CYP3A4 = CYP3A4 (Homo sapiens (Human), UniProt P08684); assay: Direct inhibition test (DI test), CYP 3A4; type: in vitro ADME; settings: human liver microsomes 0.2 mg/ml, first of two values a/b (two 3A4 probes midazolam, testosterone; assignment not given), read-out: Direct inhibition rate (%) 3A4, first value
CYP3A4, sequence (P08684 whole entry): as above
Experimental: as §2

CYP2D6 = CYP2D6 (Homo sapiens (Human), UniProt P10635); assay: Direct inhibition test (DI test), CYP 2D6; type: in vitro ADME; settings: human liver microsomes 0.2 mg/ml, read-out: Direct inhibition rate (%) 2D6
CYP2D6, sequence (P10635 whole entry): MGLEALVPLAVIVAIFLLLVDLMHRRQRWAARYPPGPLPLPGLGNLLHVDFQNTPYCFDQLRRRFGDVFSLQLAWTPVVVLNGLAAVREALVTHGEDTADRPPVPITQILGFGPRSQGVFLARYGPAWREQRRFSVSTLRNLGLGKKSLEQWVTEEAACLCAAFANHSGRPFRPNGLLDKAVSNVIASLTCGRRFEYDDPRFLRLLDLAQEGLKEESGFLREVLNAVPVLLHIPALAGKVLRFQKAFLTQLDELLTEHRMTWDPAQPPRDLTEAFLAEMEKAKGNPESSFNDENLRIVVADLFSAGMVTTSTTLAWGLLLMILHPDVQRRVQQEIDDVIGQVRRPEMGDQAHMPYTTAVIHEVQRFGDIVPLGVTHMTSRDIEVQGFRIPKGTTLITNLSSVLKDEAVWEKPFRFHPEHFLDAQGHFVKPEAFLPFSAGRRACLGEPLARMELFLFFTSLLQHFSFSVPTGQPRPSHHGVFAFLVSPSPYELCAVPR
Experimental: as §2

CYP2C9 = CYP2C9 (Homo sapiens (Human), UniProt P11712); assay: Direct inhibition test (DI test), CYP 2C9; type: in vitro ADME; settings: human liver microsomes 0.2 mg/ml, read-out: Direct inhibition rate (%) 2C9
CYP2C9, sequence (P11712 whole entry): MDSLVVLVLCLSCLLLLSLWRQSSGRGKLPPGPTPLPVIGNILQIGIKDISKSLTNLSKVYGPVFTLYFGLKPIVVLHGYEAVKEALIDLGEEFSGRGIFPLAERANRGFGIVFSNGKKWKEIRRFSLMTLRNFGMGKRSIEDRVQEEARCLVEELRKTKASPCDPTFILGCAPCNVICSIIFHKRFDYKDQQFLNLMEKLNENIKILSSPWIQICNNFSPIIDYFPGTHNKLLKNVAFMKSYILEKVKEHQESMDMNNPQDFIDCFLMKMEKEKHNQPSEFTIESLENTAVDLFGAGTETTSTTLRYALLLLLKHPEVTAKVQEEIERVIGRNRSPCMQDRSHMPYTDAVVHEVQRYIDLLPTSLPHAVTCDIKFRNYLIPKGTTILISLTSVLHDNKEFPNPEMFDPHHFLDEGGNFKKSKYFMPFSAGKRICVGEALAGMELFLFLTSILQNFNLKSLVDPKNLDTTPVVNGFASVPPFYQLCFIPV
Experimental: as §2

CYP2C19 = CYP2C19 (Homo sapiens (Human), UniProt P33261); assay: Direct inhibition test (DI test), CYP 2C19; type: in vitro ADME; settings: human liver microsomes 0.2 mg/ml, read-out: Direct inhibition rate (%) 2C19
CYP2C19, sequence (P33261 whole entry): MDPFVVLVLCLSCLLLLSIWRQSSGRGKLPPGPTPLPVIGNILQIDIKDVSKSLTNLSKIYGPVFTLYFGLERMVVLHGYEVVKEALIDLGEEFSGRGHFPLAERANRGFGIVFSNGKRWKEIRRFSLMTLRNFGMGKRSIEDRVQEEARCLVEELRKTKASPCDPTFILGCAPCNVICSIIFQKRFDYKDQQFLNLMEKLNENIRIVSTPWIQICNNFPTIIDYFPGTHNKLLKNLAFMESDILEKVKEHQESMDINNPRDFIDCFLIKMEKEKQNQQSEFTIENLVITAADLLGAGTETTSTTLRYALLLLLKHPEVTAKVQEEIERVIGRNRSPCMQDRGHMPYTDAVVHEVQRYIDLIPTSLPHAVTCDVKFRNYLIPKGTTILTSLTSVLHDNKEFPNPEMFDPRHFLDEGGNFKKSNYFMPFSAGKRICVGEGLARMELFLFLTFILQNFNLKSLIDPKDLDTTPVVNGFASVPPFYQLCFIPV
Experimental: as §2

| Structure (SMILES) | IC50 (BRD4 (I)) [µM] | IC50 ([1]; Homo sapiens, MM1.S) [µM] | inhibitory activity against the MM.1S cell line (in words) [1] | Direct inhibition rate (%) 3A4, second value (3A4) [%] | TDI (CYP enzyme) | other results |
| --- | --- | --- | --- | --- | --- | --- |
| Cc1ccc(-n2nc(C(=O)N3C[C@@H](C)N[C@@H](C)C3)nc2-c2ccc3c(c2)N(C2CC2)C(C)C(=O)N3C)cc1 (stereo partly shown) [Example 36] | 0.0185 | 0.00313 | better inhibitory activity against the MM.1S cell line than the positive (+)-JQ1 |  |  |  |
| Cc1ccc(-n2nc(C(=O)N(C)CCN(C)C)nc2-c2ccc3c(c2)N(C2CCCC2)[C@H](C)C(=O)N3C)cc1 [Example 13] | 0.0083 | 0.0224 ± 0.0014 |  |  |  |  |
| Cc1ccc(-n2nc(C(=O)N3CCN(C)CC3)nc2-c2ccc3c(c2)N(C2CCCC2)[C@H](C)C(=O)N3C)cc1F [Example 16] | 0.00406 | 0.0294 ± 0.0093 |  |  |  |  |
| CCN1CCN(C(=O)c2nc(-c3ccc4c(c3)N(C3CCCC3)[C@H](C)C(=O)N4C)n(-c3ccc(C)cc3)n2)CC1 [Example 10] | 0.00496 | 0.0258 ± 0.00052 |  |  |  |  |
| Cc1ccc(-n2nc(C(=O)N3C[C@@H](C)N[C@@H](C)C3)nc2-c2ccc3c(c2)N(C(C)C)[C@H](C)C(=O)N3C)cc1 [Example 37] | 0.0151 | 0.0182 | better inhibitory activity against the MM.1S cell line than the positive (+)-JQ1 |  |  |  |
| Cc1ccc(-n2nc(C(=O)N3CCN(C)CC3)nc2-c2ccc3c(c2)N(C2CC2)C(C)C(=O)N3C)cc1 (stereo not shown) [Example 33] | 0.0157 |  | better inhibitory activity against the MM.1S cell line than the positive (+)-JQ1 | 12 | no | IC50 [1]: 0.0107 ± 0.00259 µM; HLM Clint [2]: 22 µL/min/mg; HLM t1/2 [2]: 62 min; MLM t1/2 [3]: 107 min; mLM Clint [3]: 13 µL/min/mg; Direct inhibition rate (%) 3A4, first value (3A4): 7% |
| Cc1ccc(-n2nc(C(=O)N3CCN(C)CC3)nc2-c2ccc3c(c2)N(C2CCCC2)[C@H](C)C(=O)N3C)c(C)c1 [Example 9] | 0.0082 | 0.023 ± 0.00742 |  |  |  |  |
| Cc1ccc(-n2nc(C(=O)N3CCN(C)CC3)cc2-c2ccc3c(c2)N(C2CCCC2)[C@H](C)C(=O)N3C)cc1 [Example 26] | 0.0051 |  |  | 37 | no | microsomal CLint at 1 μM [2]: 66 µL/min/mg; half-life at 1 μM [2]: 21 min; half-life at 1 μM ([3]; read-out: MLM t1/2): 27 min; microsomal CLint at 1 μM [3]: 52 µL/min/mg; inhibition at 20 min (CYP3A4): 35%; inhibition at 20 min (CYP2D6): 4%; inhibition at 20 min (CYP2C9): 39%; inhibition at 20 min (CYP2C19): 34% |
| Cc1ccc(-n2nc(C(=O)N3CC4CCC(C3)N4C)nc2-c2ccc3c(c2)N(C2CCCC2)[C@H](C)C(=O)N3C)cc1 [Example 14] | 0.0045 | 0.0107 ± 0.00171 | better inhibitory activity against the MM.1S cell line than the positive (+)-JQ1 |  |  |  |
| Cc1ccc(-n2nc(C(=O)N3C[C@@H](C)N[C@@H](C)C3)cc2-c2ccc3c(c2)N(C2CCCC2)[C@H](C)C(=O)N3C)cc1 [Example 27] | 0.0049 |  |  | 47 | no | microsomal CLint at 1 μM [2]: 55 µL/min/mg; half-life at 1 μM [2]: 25 min; half-life at 1 μM ([3]; read-out: half-lives in mouse liver microsomes): 248 min; microsomal CLint at 1 μM [3]: 6 µL/min/mg; Direct inhibition rate (%) 3A4, first value (3A4): 24%; inhibition at 20 min (CYP2D6): 6%; inhibition at 20 min (CYP2C9): 27%; inhibition at 20 min (CYP2C19): 19% |
